In patent US20130281397A1, “TREATMENT OF DISEASES BY EPIGENETIC REGULATION” (RVX Therapeutics Inc., priority 2012, published 2013):
Where a name gives a salt, the structure may show the parent alone.

Experiments:
Brd4 bromodomain 1 = target: T1, Brd4 bromodomain 1 (Homo sapiens, UniProt O60885); experiment: Inhibition of binding of tetra-acetylated histone H4 and Brd4 bromodomain 1 by TR-FRET; settings: His-tagged bromodomain 200 nM, biotinylated tetra-acetylated histone H4 peptide 25-50 nM, 2 hours at room temperature
T1 construct: made in house; host or cells: E. coli BL21(DE3)
Procedure: Proteins were cloned and overexpressed with a N-terminal 6×His tag, then purified by nickel affinity followed by size exclusion chromatography. Briefly, E. coli BL21(DE3) cells were transformed with a recombinant expression vector encoding N-terminally […] tagged bromodomains from Brd2, Brd3, or Brd4. Cell cultures were incubated at 37° C. with shaking to the appropriate density and induced overnight with IPTG. The supernatant of lysed cells was loaded onto Ni-IDA column for purification. Eluted protein was pooled, concentrated and further purified by size exclusion chromatography. Fractions representing monomeric protein were pooled, concentrated, aliquoted, and frozen at −80° C. for use in subsequent experiments.
For inhibition assays, serially diluted test compound was added to these reactions in a 0.2% final concentration of DMSO. Final buffer concentrations were 30 mM HEPES pH 7.4, 30 mM NaCl, 0.3 mM CHAPS, 20 mM phosphate pH 7.0, 320 mM KF, 0.08% BSA). […] The binding inhibitory activity was shown by a decrease in 665 nm fluorescence relative to 620 nm. IC50 values were determined from a dose response curve.

Row | Compound | melting point | FRET activity (<50 uM) (Brd4 bromodomain 1)
1 | COc1cc(OC)c2c(=O)[nH]c(-c3cc(C)c(OCCO)c(C)c3)cc2n1 [Example 56, 7-(4-(2-hydroxyethoxy)-3,5-dimethylphenyl)-2,4-dimethoxy-1,6-naphthyridin-5(6H)-one] | 224.9 to 225.4 °C | 
2 | COc1cc(OC)c2c(=O)[nH]c(-c3cc(C)c(OCCN4CCOCC4)c(C)c3)nc2c1 (as salt: hydrochloride) [Example 17, 2-(3,5-dimethyl-4-(2-morpholinoethoxy)phenyl)-5,7-dimethoxyquinazolin-4(3H)-one] | 185 to 187 °C | 
3 | COc1cc(OC)c2c(=O)[nH]c(-c3ccncc3)nc2c1 (as salt: hydrochloride) [Example 28, 5,7-dimethoxy-2-(pyridin-4-yl)quinazolin-4(3H)-one] | 294 to 295 °C | 
4 | COc1cc(OC)c2c(=O)[nH]c(-c3cc(C)c(OCCN(C)C)c(C)c3)cc2c1 (as salt: hydrochloride) [Example 7, 3-(4-(2-(dimethylamino)ethoxy)-3,5-dimethylphenyl)-6,8-dimethoxyisoquinolin-1(2H)-one] | 261 to 263 °C | 
5 | COc1cc(OC)c2c(=O)[nH]c(-c3cccnc3)nc2c1 (as salt: hydrochloride) [Example 22, 5,7-dimethoxy-2-(pyridin-3-yl)quinazolin-4(3H)-one] | 257 to 259 °C | 
6 | Cc1cc(-c2nc3ccc(CN4CCOCC4)cc3c(=O)[nH]2)cc(C)c1O (as salt: hydrochloride) [Example 57, 2-(4-hydroxy-3,5-dimethylphenyl)-6-(morpholinomethyl)quinazolin-4(3H)-one] | 284 to 286 °C | 
7 | COc1cc(OC)c2c(=O)[nH]c(-c3ccccn3)nc2c1 (as salt: hydrochloride) [Example 21, 5,7-dimethoxy-2-(pyridin-2-yl)quinazolin-4(3H)-one] | 215 to 217 °C | 
8 | COc1cc(OC)c2c(=O)[nH]c(-c3ccc(OCCO)c(OC)c3)nc2c1 [Example 52, 2-(4-(2-hydroxyethoxy)-3-methoxyphenyl)-5,7-dimethoxyquinazolin-4(3H)-one] | 246 to 248 °C | 
9 | COc1cc2cc(-c3cc(C)c(O)c(C)c3)n(C)c(=O)c2c(OC)c1C [Example 14 (left), 3-(4-hydroxy-3,5-dimethylphenyl)-6,8-dimethoxy-2,7-dimethylisoquinolin-1(2H)-one] | 246 to 248 °C | 
10 | COc1cc(OC)c2c(=O)[nH]c(-c3ccc(CN4CCOCC4)cc3)nc2c1 (as salt: hydrochloride) [Example 61, 5,7-dimethoxy-2-(4-(morpholinomethyl)phenyl)quinazolin-4(3H)-one] | 206 to 208 °C (dec.) | 
11 | COc1cc(OC)c2c(=O)[nH]c(-c3ccc(CN4CCN(C)CC4)cc3)nc2c1 (as salt: hydrochloride) [Example 54, 5,7-dimethoxy-2-(4-((4-methylpiperazin-1-yl)methyl)phenyl)quinazolin-4(3H)-one] | 275 to 277 °C | 
12 | COc1cc(OC)c2c(=O)[nH]c(-c3cc(C)c(OCCN4CCOCC4)c(C)c3)cc2c1 [Example 15, 3-(3,5-dimethyl-4-(2-morpholinoethoxy)phenyl)-6,8-dimethoxyisoquinolin-1(2H)-one] |  | Active
13 | Cc1cc(-c2nc3ccccc3c(=O)[nH]2)cc(C)c1OCCN1CCOCC1 [Example 29, 2-(3,5-dimethyl-4-(2-morpholinoethoxy)phenyl)quinazolin-4(3H)-one] |  | Inactive
14 | COc1cc(OC)c2c(=O)[nH]c(-c3cc(C)c(OCCN(C)C)c(C)c3)cc2c1 [Example 7, 3-(4-(2-(dimethylamino)ethoxy)-3,5-dimethylphenyl)-6,8-dimethoxyisoquinolin-1(2H)-one] |  | Active
15 | COc1cc(OC)c2c(=O)[nH]c(-c3cc(C)c(O)c(C)c3)cc2n1 [Example 13, 7-(4-hydroxy-3,5-dimethylphenyl)-2,4-dimethoxy-1,6-naphthyridin-5(6H)-one] |  | Active
16 | COc1cc(OC)c2c(=O)[nH]c(-c3ccccn3)nc2c1 [Example 21, 5,7-dimethoxy-2-(pyridin-2-yl)quinazolin-4(3H)-one] |  | Active
17 | COc1cc(OC)c2c(=O)[nH]c(-c3ccc(O)cc3)nc2c1 [Example 19, 2-(4-hydroxyphenyl)-5,7-dimethoxyquinazolin-4(3H)-one] |  | Active
18 | Cc1cc(-c2cc3ncccc3c(=O)[nH]2)cc(C)c1O [Example 5, 7-(4-hydroxy-3,5-dimethylphenyl)-1,6-naphthyridin-5(6H)-one] |  | Inactive
19 | COc1cc(OC)c2c(=O)[nH]c(-c3ccc(N4CCOCC4)cc3)nc2c1 [Example 44, 5,7-dimethoxy-2-(4-morpholinophenyl)quinazolin-4(3H)-one] |  | Active

Next, values leading:

Row | melting point | FRET activity (<50 uM) (Brd4 bromodomain 1) | Compound
20 |  | Active | COc1cc(OC)c2c(=O)[nH]c(-c3cc(C)c(OCCNC(=O)Nc4ccccc4)c(C)c3)nc2c1 [Example 111, 1-(2-(4-(5,7-dimethoxy-4-oxo-3,4-dihydroquinazolin-2-yl)-2,6-dimethylphenoxy)ethyl)-3-phenylurea]
21 |  | Inactive | COc1cc(OC)c2c(=O)[nH]c(-c3ccccc3Cl)nc2c1 [Example 77, 2-(2-chlorophenyl)-5,7-dimethoxyquinazolin-4(3H)-one]
22 |  | Active | CNC(=O)NCCOc1c(C)cc(-c2nc3cc(OC)cc(OC)c3c(=O)[nH]2)cc1C [Example 109, 1-(2-(4-(5,7-dimethoxy-4-oxo-3,4-dihydroquinazolin-2-yl)-2,6-dimethylphenoxy)ethyl)-3-methylurea]
23 |  | Inactive | COc1cc(OC)c2c(=O)[nH]c(-c3cc(C)c(OCCNS(=O)(=O)c4ccc(C)cc4)c(C)c3)nc2c1 [Example 104, N-(2-(4-(5,7-dimethoxy-4-oxo-3,4-dihydroquinazolin-2-yl)-2,6-dimethylphenoxy)ethyl)-4-methylbenzenesulfonamide]
24 |  | Active | CCN1CCN(Cc2ccc(-c3nc4cc(OC)cc(OC)c4c(=O)[nH]3)cc2)CC1 [Example 62, 2-(4-((4-ethylpiperazin-1-yl)methyl)phenyl)-5,7-dimethoxyquinazolin-4(3H)-one]
25 |  | Active | COc1cc(OC)c2c(=O)[nH]c(-c3cc(C)c(OCCNC(=O)C(C)C)c(C)c3)nc2c1 [Example 108, N-(2-(4-(5,7-dimethoxy-4-oxo-3,4-dihydroquinazolin-2-yl)-2,6-dimethylphenoxy)ethyl)isobutyramide]
26 |  | Active | CCCNC(=O)OCCOc1c(C)cc(-c2nc3cc(OC)cc(OC)c3c(=O)[nH]2)cc1C [Example 99, 2-(4-(5,7-Dimethoxy-4-oxo-3,4-dihydroquinazolin-2-yl)-2,6-dimethyl-phenoxy)ethyl propylcarbamate]
27 |  | Inactive | COc1ccc2nc(-c3cc(C)c(OCCO)c(C)c3)[nH]c(=O)c2c1 [Example 76, 2-(4-(2-hydroxyethoxy)-3,5-dimethylphenyl)-6-methoxyquinazolin-4(3H)-one]
28 |  | Inactive | COc1cc(OC)c2c(=O)[nH]c(-c3cc(C)c(OCCNS(=O)(=O)c4ccccc4)c(C)c3)nc2c1 [Example 103, N-(2-(4-(5,7-dimethoxy-4-oxo-3,4-dihydroquinazolin-2-yl)-2,6-dimethylphenoxy)ethyl)benzenesulfonamide]
